# From ChEMBL document CHEMBL5331121, “Preferred Conformation-Guided Discovery of Potent and Orally Active HIF Prolyl Hydroxylase 2 Inhibitors for the Treatment of Anemia” (J Med Chem, 2023)
# Active and inactive are the calls of the source. No cut-off for these calls is given here.
# Experiments:
# [1] = target: Egl nine homolog 1 (Homo sapiens, UniProt Q9GZT9); experiment: Binding affinity to […] PHD2 (181 to 426 residues) (unknown origin) by fluorescence polarization assay
# [2] = test system: Erythrocyte; experiment: Upregulation of reticulocytes in C57BL/6J mouse assessed as increase in RBC at 10 to 50 mg/kg, po administered once daily for 3 days; type: functional, organism-based; conditions: dose 10-50 mg/kg, time 3.0 day
# [3] = test system: Mus musculus; experiment: Upregulation of reticulocytes in C57BL/6J mouse at 10 mg/kg, po administered once daily for 3 days; type: functional, organism-based; conditions: time 3.0 day
# [4] = Mean residence time (0 to infinity) in Sprague-Dawley rat at 10 mg/kg, po measured upto 24 hrs by LC-MS/MS analysis; type: ADME, organism-based; conditions: in vivo
# [5] = Toxicity in ICR mouse assessed as behavioral abnormalities at 50 to 200 mg/kg, po administered every other day for 14 days; type: organism-based; conditions: in vivo, 336 h, dose 50-200 mg/kg, time 14 day
# [6] = Toxicity in ICR mouse assessed as spleen damage at 50 to 200 mg/kg, po administered every other day for 14 days; type: organism-based; conditions: in vivo, 336 h, dose 50-200 mg/kg, time 14 day
# [7] = Toxicity in ICR mouse assessed as lung damage at 50 to 200 mg/kg, po administered every other day for 14 days; type: organism-based; conditions: in vivo, 336 h, dose 50-200 mg/kg, time 14 day
# [8] = test system: Hep 3B2; experiment: Upregulation of EPO mRNA level in human Hep3B cells incubated for 12 hrs by RT-qPCR analysis; type: functional, cell-based; conditions: dose 5-20 µM
# [9] = Mean residence time (0 to infinity) in mouse at 1 mg/kg, iv measured upto 24 hrs by LC-MS/MS analysis; type: ADME, organism-based; conditions: in vivo
# [10] = Nephrotoxicity in ICR mouse at 50 to 200 mg/kg, po administered every other day for 14 days; type: toxicity, organism-based; conditions: in vivo, 336 h, dose 50-200 mg/kg, time 14 day
# [11] = AUC(0 to t) in mouse at 10 mg/kg, po measured upto 24 hrs by LC-MS/MS analysis; type: ADME, organism-based; set-up: dose 10 mg/kg, time < 24 hrs, route po; conditions: in vivo
# [12] = Apparent volume of distribution in Sprague-Dawley rat at 1 mg/kg, iv measured upto 24 hrs by LC-MS/MS analysis; type: ADME, organism-based; conditions: in vivo, read-out: Vz
# [13] = Half life in mouse at 10 mg/kg, po measured upto 24 hrs by LC-MS/MS analysis; type: ADME, organism-based; conditions: in vivo
# [14] = Toxicity in ICR mouse assessed as effect on food intake at 50 to 200 mg/kg, po administered every other day for 14 days; type: organism-based; conditions: in vivo, 336 h, dose 50-200 mg/kg, time 14 day
# [15] = Apparent volume of distribution in Sprague-Dawley rat at 10 mg/kg, po measured upto 24 hrs by LC-MS/MS analysis; type: ADME, organism-based; conditions: in vivo
# [16] = AUC(0 to infinity) in Sprague-Dawley rat at 10 mg/kg, po measured upto 24 hrs by LC-MS/MS analysis; type: ADME, organism-based; set-up: dose 10 mg/kg, time < 24 hrs, route po; conditions: in vivo
# [17] = Half life in mouse at 1 mg/kg, iv measured upto 24 hrs by LC-MS/MS analysis; type: ADME, organism-based; conditions: in vivo
# [18] = Tmax in mouse at 10 mg/kg, po measured upto 24 hrs by LC-MS/MS analysis; type: ADME, organism-based; conditions: in vivo
# [19] = Clearance in mouse at 1 mg/kg, iv measured upto 24 hrs by LC-MS/MS analysis; type: ADME, organism-based; conditions: in vivo
# [20] = Mean residence time (0 to infinity) in Sprague-Dawley rat at 1 mg/kg, iv measured upto 24 hrs by LC-MS/MS analysis; type: ADME, organism-based; conditions: in vivo
# [21] = target: Hypoxia-inducible factor 1-alpha (Homo sapiens) (UniProt Q16665); experiment: Induction of HIF-1alpha stabilization in human Hep3B cells at 20 to 50 uM by Western blotting analysis; type: cell-based; conditions: dose 20-50 µM
# Sequence of Hypoxia-inducible factor 1-alpha (Homo sapiens) (Q16665 whole entry, looked up): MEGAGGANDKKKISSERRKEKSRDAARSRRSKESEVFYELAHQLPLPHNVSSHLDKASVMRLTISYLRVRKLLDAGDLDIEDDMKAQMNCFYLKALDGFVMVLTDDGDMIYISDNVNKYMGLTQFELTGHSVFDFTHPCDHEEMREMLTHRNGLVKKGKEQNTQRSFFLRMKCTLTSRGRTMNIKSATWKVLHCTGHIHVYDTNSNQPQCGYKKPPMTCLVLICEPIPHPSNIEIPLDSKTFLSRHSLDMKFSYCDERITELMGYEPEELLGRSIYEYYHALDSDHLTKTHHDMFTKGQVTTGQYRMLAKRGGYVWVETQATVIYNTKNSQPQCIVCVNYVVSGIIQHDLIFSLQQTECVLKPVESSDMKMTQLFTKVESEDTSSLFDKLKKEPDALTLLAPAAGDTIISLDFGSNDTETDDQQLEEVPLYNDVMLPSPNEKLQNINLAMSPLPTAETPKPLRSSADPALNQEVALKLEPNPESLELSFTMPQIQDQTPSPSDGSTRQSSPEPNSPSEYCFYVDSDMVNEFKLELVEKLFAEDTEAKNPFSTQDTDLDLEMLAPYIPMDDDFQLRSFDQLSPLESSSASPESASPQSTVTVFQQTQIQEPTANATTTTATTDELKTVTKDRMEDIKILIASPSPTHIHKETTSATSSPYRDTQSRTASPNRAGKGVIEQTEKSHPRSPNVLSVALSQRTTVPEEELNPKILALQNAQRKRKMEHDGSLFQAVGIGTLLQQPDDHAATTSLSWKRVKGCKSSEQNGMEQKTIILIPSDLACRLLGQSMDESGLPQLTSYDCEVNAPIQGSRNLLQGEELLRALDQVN
# [22] = test system: Hep 3B2; experiment: Cytotoxicity against human Hep3B cells incubated for 48 hrs by CCK-8 assay; type: toxicity, cell-based; conditions: hep 3b2, 48 h
# [23] = Metabolic stability in rat liver microsomes assessed as clearance at 1 uM preincubated for 5 mins followed by NADPH addition and measured upto 60 mins by LC-MS/MS analysis; type: ADME, Microsome; conditions: time < 65 min, read-out: CLH
# [24] = Tmax in Sprague-Dawley rat at 10 mg/kg, po measured upto 24 hrs by LC-MS/MS analysis; type: ADME, organism-based; conditions: in vivo
# [25] = Toxicity in ICR mouse assessed as change in kidney to body weight ratio at 50 to 200 mg/kg, po administered every other day for 14 days; type: organism-based; conditions: in vivo, 336 h, dose 50-200 mg/kg, time 14 day
# [26] = Toxicity in ICR mouse assessed as heart damage at 50 to 200 mg/kg, po administered every other day for 14 days; type: organism-based; conditions: in vivo, 336 h, dose 50-200 mg/kg, time 14 day
# [27] = Toxicity in ICR mouse assessed as change in heart to body weight ratio at 50 to 200 mg/kg, po administered every other day for 14 days; type: organism-based; conditions: in vivo, 336 h, dose 50-200 mg/kg, time 14 day
# [28] = AUC(0 to t) in Sprague-Dawley rat at 10 mg/kg, po measured upto 24 hrs by LC-MS/MS analysis; type: ADME, organism-based; set-up: time < 24 hrs, dose 10 mg/kg, route po; conditions: in vivo
# [29] = Oral bioavailability in Sprague-Dawley rat at 10 mg/kg measured upto 24 hrs by LC-MS/MS analysis; type: ADME, organism-based; conditions: in vivo
# [30] = Apparent volume of distribution in mouse at 10 mg/kg, po measured upto 24 hrs by LC-MS/MS analysis; type: ADME, organism-based; conditions: in vivo
# [31] = Apparent volume of distribution in mouse at 1 mg/kg, iv measured upto 24 hrs by LC-MS/MS analysis; type: ADME, organism-based; conditions: in vivo, read-out: Vz
# [32] = Toxicity in ICR mouse assessed as change in liver to body weight ratio at 50 to 200 mg/kg, po administered every other day for 14 days; type: organism-based; conditions: in vivo, 336 h, dose 50-200 mg/kg, time 14 day
# [33] = Toxicity in ICR mouse assessed as change in lungs to body weight ratio at 50 to 200 mg/kg, po administered every other day for 14 days; type: organism-based; conditions: in vivo, 336 h, dose 50-200 mg/kg, time 14 day
# [34] = Clearance in mouse at 10 mg/kg, po measured upto 24 hrs by LC-MS/MS analysis; type: ADME, organism-based; conditions: in vivo
# [35] = target: Endothelial PAS domain-containing protein 1 (Homo sapiens) (UniProt Q99814); experiment: Induction of HIF-2alpha stabilization in human Hep3B cells at 20 to 50 uM by Western blotting analysis; type: cell-based; conditions: dose 20-50 µM
# Sequence of Endothelial PAS domain-containing protein 1 (Homo sapiens) (Q99814 whole entry, the tested form may be a part): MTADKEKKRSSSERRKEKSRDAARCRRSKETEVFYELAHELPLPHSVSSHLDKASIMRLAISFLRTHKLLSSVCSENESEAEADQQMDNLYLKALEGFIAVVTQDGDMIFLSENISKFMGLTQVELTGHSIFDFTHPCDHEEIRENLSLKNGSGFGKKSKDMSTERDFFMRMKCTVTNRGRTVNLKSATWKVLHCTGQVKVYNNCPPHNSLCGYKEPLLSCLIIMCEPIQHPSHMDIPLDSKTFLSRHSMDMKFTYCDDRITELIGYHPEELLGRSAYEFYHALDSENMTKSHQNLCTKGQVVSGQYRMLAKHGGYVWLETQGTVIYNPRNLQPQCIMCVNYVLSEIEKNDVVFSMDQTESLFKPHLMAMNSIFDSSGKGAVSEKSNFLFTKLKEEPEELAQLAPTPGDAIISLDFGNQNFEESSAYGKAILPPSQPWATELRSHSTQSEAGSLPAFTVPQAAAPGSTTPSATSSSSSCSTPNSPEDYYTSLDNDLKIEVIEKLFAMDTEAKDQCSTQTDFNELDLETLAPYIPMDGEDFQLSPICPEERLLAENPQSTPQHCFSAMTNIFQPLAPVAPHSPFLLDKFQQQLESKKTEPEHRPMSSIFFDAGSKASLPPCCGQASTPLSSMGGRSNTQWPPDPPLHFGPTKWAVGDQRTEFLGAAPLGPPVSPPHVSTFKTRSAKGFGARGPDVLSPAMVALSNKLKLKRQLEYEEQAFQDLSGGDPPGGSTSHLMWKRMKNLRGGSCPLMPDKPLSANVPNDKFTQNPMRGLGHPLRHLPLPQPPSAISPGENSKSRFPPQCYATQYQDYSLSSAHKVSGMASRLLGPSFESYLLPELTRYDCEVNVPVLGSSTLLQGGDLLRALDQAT
# [36] = Clearance in Sprague-Dawley rat at 1 mg/kg, iv measured upto 24 hrs by LC-MS/MS analysis; type: ADME, organism-based; conditions: in vivo
# [37] = Toxicity in ICR mouse assessed as liver damage at 50 to 200 mg/kg, po administered every other day for 14 days; type: organism-based; conditions: in vivo, 336 h, dose 50-200 mg/kg, time 14 day
# [38] = Oral bioavailability in mouse at 10 mg/kg measured upto 24 hrs by LC-MS/MS analysis; type: ADME, organism-based; conditions: in vivo
# [39] = AUC(0 to infinity) in mouse at 1 mg/kg, iv measured upto 24 hrs by LC-MS/MS analysis; type: ADME, organism-based; set-up: time < 24 hrs, dose 1 mg/kg, route iv; conditions: in vivo
# [40] = AUC(0 to t) in Sprague-Dawley rat at 1 mg/kg, iv measured upto 24 hrs by LC-MS/MS analysis; type: ADME, organism-based; set-up: dose 1 mg/kg, time < 24 hrs, route iv; conditions: in vivo
# [41] = Cmax in Sprague-Dawley rat at 10 mg/kg, po measured upto 24 hrs by LC-MS/MS analysis; type: ADME, organism-based; set-up: time < 24 hrs, dose 10 mg/kg, route po; conditions: in vivo
# [42] = Toxicity in ICR mouse assessed as kidney damage at 50 to 200 mg/kg, po administered every other day for 14 days; type: organism-based; conditions: in vivo, 336 h, dose 50-200 mg/kg, time 14 day
# [43] = AUC(0 to infinity) in mouse at 10 mg/kg, po measured upto 24 hrs by LC-MS/MS analysis; type: ADME, organism-based; set-up: dose 10 mg/kg, time < 24 hrs, route po; conditions: in vivo
# [44] = Toxicity in ICR mouse assessed as animal death at 800 mg/kg, po; type: organism-based; conditions: in vivo
# [45] = Toxicity in ICR mouse assessed as change in spleen to body weight ratio at 50 to 200 mg/kg, po administered every other day for 14 days; type: organism-based; conditions: in vivo, 336 h, dose 50-200 mg/kg, time 14 day
# [46] = Half life in Sprague-Dawley rat at 1 mg/kg, iv measured upto 24 hrs by LC-MS/MS analysis; type: ADME, organism-based; conditions: in vivo
# [47] = AUC(0 to infinity) in Sprague-Dawley rat at 1 mg/kg, iv measured upto 24 hrs by LC-MS/MS analysis; type: ADME, organism-based; set-up: time < 24 hrs, dose 1 mg/kg, route iv; conditions: in vivo
# [48] = Toxicity in ICR mouse assessed as effect on body weight at 50 to 200 mg/kg, po administered every other day for 14 days; type: organism-based; conditions: in vivo, 336 h, dose 50-200 mg/kg, time 14 day
# [49] = Mean residence time (0 to infinity) in mouse at 10 mg/kg, po measured upto 24 hrs by LC-MS/MS analysis; type: ADME, organism-based; conditions: in vivo
# [50] = Clearance in Sprague-Dawley rat at 10 mg/kg, po measured upto 24 hrs by LC-MS/MS analysis; type: ADME, organism-based; conditions: in vivo
# [51] = Hepatotoxicity in ICR mouse at 50 to 200 mg/kg, po administered every other day for 14 days; type: toxicity, organism-based; conditions: in vivo, 336 h, dose 50-200 mg/kg, time 14 day
# [52] = Upregulation of EPO mRNA level in human Hep3B cells assessed as fold increase at 20 uM incubated for 12 hrs by RT-qPCR analysis; type: functional, Hep 3B2
# [53] = AUC(0 to t) in mouse at 1 mg/kg, iv measured upto 24 hrs by LC-MS/MS analysis; type: ADME, organism-based; set-up: time < 24 hrs, dose 1 mg/kg, route iv; conditions: in vivo
# [54] = Cmax in mouse at 10 mg/kg, po measured upto 24 hrs by LC-MS/MS analysis; type: ADME, organism-based; set-up: time < 24 hrs, dose 10 mg/kg, route po; conditions: in vivo
# [55] = test system: Hep 3B2; experiment: Effect on VEGFA gene expression in human Hep3B cells at 5 to 20 uM incubated for 12 hrs by RT-qPCR analysis; type: functional, cell-based; conditions: dose 5-20 µM
# Sequence of Egl nine homolog 1 (Q9GZT9 whole entry, the tested form may be a part): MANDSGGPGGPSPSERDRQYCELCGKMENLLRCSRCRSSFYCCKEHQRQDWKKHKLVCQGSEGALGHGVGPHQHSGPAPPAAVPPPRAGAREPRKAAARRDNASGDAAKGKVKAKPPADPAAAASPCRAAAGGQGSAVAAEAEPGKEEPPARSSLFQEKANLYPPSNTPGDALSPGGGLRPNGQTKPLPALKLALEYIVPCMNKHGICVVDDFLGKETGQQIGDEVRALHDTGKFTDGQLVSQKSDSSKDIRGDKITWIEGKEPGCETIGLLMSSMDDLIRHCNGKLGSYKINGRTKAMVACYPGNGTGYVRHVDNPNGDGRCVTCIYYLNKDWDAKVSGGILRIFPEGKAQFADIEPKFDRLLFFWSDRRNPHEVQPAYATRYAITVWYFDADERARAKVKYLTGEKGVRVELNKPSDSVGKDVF
smiles,measurement,setting,value
O=C(O)CNC(=O)c1ncc(C#CCOc2ccc(Cl)cc2)cc1O [DDO-3055],IC50,[1],15.6 nM
O=C(O)CNC(=O)c1ncc(-c2cccc(Cl)c2)cc1O,Activity,[2],Dose-Dependent Effect
same,Activity,[3],Active
O=C(O)CNC(=O)c1ncc(C2CCN(C(=O)c3ccc(F)cc3)CC2)cc1O,IC50,[1],67.5 nM
O=C(O)CNC(=O)c1ncc(C2CCN(C(=O)CNc3ccc(Cl)cc3)CC2)cc1O,IC50,[1],22.5 nM
same,MRT inf,[4],33.6 min
same,Activity,[5],Non-Toxic
same,Activity,[6],Non-Toxic
same,Activity,[7],Non-Toxic
same,Activity,[8],Dose-Dependent Effect
same,MRT inf,[9],31.8 min
same,Activity,[10],Non-Toxic
same,AUC(0-t) at 24 h,[11],4480 ng·h/mL
same,Vd,[12],2.64 L/kg
same,half-life,[13],70.2 min
same,Activity,[14],Non-Toxic
same,Vz,[15],4.692 L/kg
same,AUC(0-inf),[16],7140 ng·h/mL
same,half-life,[17],19.8 min
same,Tmax,[18],30 min
same,clearance,[19],12 mL/min/kg
same,MRT inf,[20],92.4 min
same,Activity,[21],Active
same,Activity,[22],Non-Toxic
same,microsomal CLint at 1 µM,[23],3.8 µL/min/mg
same,Tmax,[24],4.8 min
same,Activity,[25],Non-Toxic
same,Activity,[26],Non-Toxic
same,Activity,[27],Non-Toxic
same,AUC(0-t) at 24 h,[28],7120 ng·h/mL
same,bioavailability,[29],33.9%
same,Vz,[30],4.532 L/kg
same,Vd,[31],0.345 L/kg
same,Activity,[32],Non-Toxic
same,Activity,[33],Non-Toxic
same,CL/F,[34],37.4 mL/min/kg
same,Activity,[35],Active
same,clearance,[36],8.05 mL/min/kg
same,Activity,[37],Non-Toxic
same,bioavailability,[38],35.3%
same,AUC(0-inf),[39],1390 ng·h/mL
same,AUC(0-t) at 24 h,[40],2060 ng·h/mL
same,Cmax,[41],26100 ng/mL
same,Activity,[42],Non-Toxic
same,AUC(0-inf),[43],4490 ng·h/mL
same,Activity,[44],Non-Toxic
same,Activity,[45],Non-Toxic
same,Activity,[2],Dose-Dependent Effect
same,half-life,[46],223 min
same,AUC(0-inf),[47],2110 ng·h/mL
same,Activity,[48],Non-Toxic
same,MRT inf,[49],100 min
same,CL/F,[50],23.6 mL/min/kg
same,Activity,[3],Active
same,Activity,[51],Non-Toxic
same,fold change (FC),[52],11
same,AUC(0-t) at 24 h,[53],1380 ng·h/mL
same,Cmax,[54],3040 ng/mL
same,Activity,[55],inactive
